Where two headings read alike, the source gives them in different places.
Experiment: Multi-component pharmacokinetic study of GQD, GQD-GC and single herb extracts in rats (plasma, LC/MS/MS)
Format: in vivo, Sprague-Dawley rats
Conditions: for decrease of Cmax in the GQD group compared with the Huang-Qin group: rats, oral, GQD vs Huang-Qin
Description: Male Sprague-Dawley rats (220–250 g) were used for PK study, and the details were described in Supplemental Data. All procedures were in accordance with the National Institutes of Health Guide for the Care and Use of Laboratory Animals.
For PK study of GQD and its component herbs, rats were randomly divided into six groups (n = 10 for each group) before oral administration.
All blood samples were immediately centrifuged at 6,000 rpm (4°C) for 20 min to obtain plasma. The plasma samples were stored at −80°C.
A Finnigan TSQ Quantum triple quadrupole mass spectrometer was connected to a Surveyor HPLC via ESI interface (ThermoFisher). High purity nitrogen was used as the sheath and auxiliary gas; Ultra-high purity argon was used as the collision gas (1.5 mTorr). Q1 and Q3 quadrupoles were set at unit resolution. […] The column temperature was 40°C. The mobile phase consisted of acetonitrile containing 2% (v/v) methanol (A) and water containing 0.1% (v/v) formic acid (B). […] An aliquot of 5 μL was injected for analysis. UV spectra were obtained by scanning from 200 to 400 nm. The mass spectrometer was operated in the (+)-ESI mode. The optimized parameters were as follows: sheath gas (N2), 50 arb; auxiliary gas (N2), 5 arb; spray voltage, 4.0 kV; capillary temperature, 330°C; collision energy, see Table S1. Analytes were detected in the selected reaction monitoring (SRM) mode. Data were processed by Xcalibur 2.0.7 software (ThermoFisher).
LC/MS/MS calibration and quantitation data were processed with Xcalibur 2.0.7 software (ThermoFisher). The maximal plasma concentrations (Cmax) and their time of occurrence (Tmax) were obtained directly from the measured data. Other pharmacokinetic parameters were calculated by non-compartment or compartment models using WinNonlin® software (v6.1, Pharsight). Unless otherwise stated, results were expressed as the mean ± SD. Statistical significance in differences of the means was determined by Student's t–test, with a significance level of P < 0.05.
Herbal materials and extracts.
The four component herbs, Puerariae Lobatae Radix (Ge-Gen, GG), Scutellariae Radix (Huang-Qin, HQ), Coptidis Rhizoma (Huang-Lian, HL), and Glycyrrhizae Radix et Rhizoma Praeparata cum Melle (Gan-Cao, GC) were purchased from Tianheng Pharmacy. GQD was prepared by decocting the four component herbs […]
pre-extraction of Ge-Gen using 200 mL of water for 0.5 h. The decoctions were combined, filtered, and concentrated in vacuum at 50 °C. GQD-GC was prepared using the same procedure, except that Gan-Cao was removed from the formula. Final concentration of the GQD-GC extract was equivalent to 1.0 g of the crude drugs per mL. For single herb extracts, the herbs were decocted in 8-fold volume of water for […]
Final concentrations of the extracts were 1.0 g/mL for Ge-Gen, and 0.5 g/mL for Huang-Qin, Huang-Lian and […]
For pharmacokinetic study, Male Sprague-Dawley rats (220-250 g) were obtained from the Laboratory Animal Center of Peking University Health Science Center. The […]
The rats had free access to tap water and soy-free custom diet (Ke’ao Xieli Co.). All procedures were in accordance with the National Institutes of Health Guide for the Care and Use of Laboratory Animals […]
Experimental details for the PK study
1. Preparation of internal standard solution, calibration standard solutions, and quality control solutions […]
internal standard solution. Reference standard compounds were dissolved in the internal standard solution to prepare individual stock solutions (1.0 mg/mL). These […]
each compound. The standard solution was then serially diluted to obtain calibration […]
Quality control stock solutions were prepared at three concentration levels as high QC (HQC), middle QC (MQC), and low QC (LQC), based on linear ranges of the analytes.
2.1. Sample preparation for pharmacokinetic study
The calibration standard and quality control solutions for pharmacokinetic study were […]

[1] = male, Sprague-Dawley, rat, plasma, po, 3.54 g/kg, HQ (Huang-Qin) group: rats, oral extract 3.54 g/kg, plasma, read-out: AUClast
[2] = male, Sprague-Dawley, rat, plasma, po, 16.5 g/kg, GQD-GC group (GQD without Gan-Cao): rats, oral 16.5 g/kg, plasma, read-out: AUClast
[3] = male, Sprague-Dawley, rat, plasma, po, 18.9 g/kg, GQD group: rats, oral GQD extract 18.9 g/kg, plasma, read-out: AUClast
[4] = male, Sprague-Dawley, rat, GQD group: rats, oral GQD extract 18.9 g/kg, plasma, read-out: Cmax
[5] = male, Sprague-Dawley, rat, GQD group: rats, oral GQD extract 18.9 g/kg, plasma, read-out: T1/2 (converted)
[6] = male, Sprague-Dawley, rat, GQD group: rats, oral GQD extract 18.9 g/kg, plasma, read-out: Tmax
[7] = male, Sprague-Dawley, rat, GQD-GC group (GQD without Gan-Cao): rats, oral 16.5 g/kg, plasma, read-out: Cmax
[8] = male, Sprague-Dawley, rat, GQD-GC group (GQD without Gan-Cao): rats, oral 16.5 g/kg, plasma, read-out: T1/2 (converted)
[9] = male, Sprague-Dawley, rat, GQD-GC group (GQD without Gan-Cao): rats, oral 16.5 g/kg, plasma, read-out: Tmax
[10] = male, Sprague-Dawley, rat, HQ (Huang-Qin) group: rats, oral extract 3.54 g/kg, plasma, read-out: Cmax
[11] = male, Sprague-Dawley, rat, HQ (Huang-Qin) group: rats, oral extract 3.54 g/kg, plasma, read-out: T1/2 (converted)
[12] = male, Sprague-Dawley, rat, HQ (Huang-Qin) group: rats, oral extract 3.54 g/kg, plasma, read-out: Tmax
[13] = male, Sprague-Dawley, rat, in vivo, po, 3.54 g/kg
[14] = male, Sprague-Dawley, rat, in vivo, po, 3.54 g/kg, AUClast
[15] = male, Sprague-Dawley, rat, plasma, po, 3.54 g/kg, Huang-Qin group: rats, oral 3.54 g/kg, plasma, read-out: AUClast
[16] = male, Sprague-Dawley, rat, plasma, po, 3.54 g/kg, HL (Huang-Lian) group: rats, oral extract 3.54 g/kg, plasma, read-out: AUClast
[17] = male, Sprague-Dawley, rat, HL (Huang-Lian) group: rats, oral extract 3.54 g/kg, plasma, read-out: Cmax
[18] = male, Sprague-Dawley, rat, HL (Huang-Lian) group: rats, oral extract 3.54 g/kg, plasma, read-out: T1/2 (converted)
[19] = male, Sprague-Dawley, rat, HL (Huang-Lian) group: rats, oral extract 3.54 g/kg, plasma, read-out: Tmax
[20] = male, Sprague-Dawley, rat, in vivo, po, 16.5 g/kg
[21] = male, Sprague-Dawley, rat, in vivo, po, 18.9 g/kg

Structure (SMILES) | AUC(0-t) [1] | AUC(0-t) [2] | AUC(0-t) [3] | Cmax [4] | half-life [5] | Tmax [6] | Cmax [7] | half-life [8] | Tmax [9] | Cmax [10] | half-life [11] | Tmax [12] | Cmax [13] | Tmax [13] | half-life [13] | AUC(0-t) [14] | also measured
COc1c(O)cc(O)c2c(=O)cc(-c3ccccc3)oc12 [Compound 8, wogonin] | 0.473 ± 0.0343 µg·h/mL | 0.156 ± 0.0734 µg·h/mL | 0.282 ± 0.0113 µg·h/mL | 0.0129 ± 0.00739 µg/mL | 6.63 ± 2.38 h | 7.89 ± 0.99 h | 0.0102 ± 0.00681 µg/mL | 5.64 ± 1.09 h | 8 ± 2.12 h | 0.038 ± 0.00722 µg/mL | 5.45 ± 1.22 h | 8.02 ± 2.48 h | – | – | – | – | –
COc1c(O)cc2oc(-c3ccccc3)cc(=O)c2c1O [Compound 9, oroxylin A] | – | – | – | – | – | – | – | – | – | – | – | – | 0.0436 ± 0.00304 µg/mL | 0.08 ± 0.53 h | 5.29 ± 2.33 h | 0.351 ± 0.174 µg·h/mL | –
O=c1cc(-c2ccccc2)oc2cc(O)c(O)c(O)c12 [Compound 12, baicalein] | 0.0195 ± 0.0112 µg·h/mL | – | 0.108 ± 0.047 µg·h/mL | 0.0111 ± 0.00066 µg/mL | 7.57 ± 0.21 h | 0.42 ± 0.03 h | – | – | – | 0.00346 ± 0.00034 µg/mL | 5.99 ± 1.23 h | 1 ± 0.64 h | – | – | – | – | –
COc1c(O)cc(OC2OC(CO)C(O)C(O)C2O)c2c(=O)cc(-c3ccccc3)oc12 (centres unmarked) [Compound 13, wogonin 5-O-glucoside] | 0.0428 ± 0.00601 µg·h/mL | 0.0282 ± 0.00304 µg·h/mL | 0.053 ± 0.00756 µg·h/mL | 0.00183 ± 0.00014 µg/mL | 16.1 ± 4.22 h | 2 ± 1.29 h | 0.00517 ± 0.00026 µg/mL | 13.1 ± 3.96 h | 2 ± 4.23 h | 0.00192 ± 0.00013 µg/mL | 16.1 ± 5.45 h | 0.1 ± 0.07 h | – | – | – | – | –
O=C(O)[C@H]1O[C@@H](Oc2cc(O)c3c(=O)cc(-c4ccccc4)oc3c2O)[C@H](O)[C@@H](O)[C@@H]1O [Compound 14, norwogonin 7-O-glucuronide] | 11 ± 2.53 µg·h/mL | 6.03 ± 0.272 µg·h/mL | 5.27 ± 0.987 µg·h/mL | 0.379 ± 0.0985 µg/mL | 4.88 ± 2.87 h | 7.05 ± 1.23 h | 0.359 ± 0.0343 µg/mL | 4.28 ± 1.63 h | 6.17 ± 8.34 h | 0.547 ± 0.0738 µg/mL | 5.1 ± 0.33 h | 7.36 ± 0.08 h | – | – | – | – | AUC(0-t) [15]: 11 ± 2.53 µg·h/mL; decrease of Cmax in the GQD group compared with the Huang-Qin group: at least 30%
O=C(O)[C@H]1O[C@@H](Oc2cc3oc(-c4ccccc4)cc(=O)c3c(O)c2O)[C@H](O)[C@@H](O)[C@@H]1O [Compound 17, baicalin] | 52.6 ± 35.5 µg·h/mL | 39.6 ± 2.61 µg·h/mL | 22.3 ± 11.2 µg·h/mL | 1.18 ± 0.87 µg/mL | 4.8 ± 3.27 h | 7.29 ± 1.38 h | 1.89 ± 0.988 µg/mL | 5.34 ± 2.55 h | 7.71 ± 1.34 h | 4.04 ± 0.585 µg/mL | 3.32 ± 1.08 h | 7.79 ± 0.99 h | – | – | – | – | AUC(0-t) [15]: 52.6 ± 35.5 µg·h/mL; decrease of Cmax in the GQD group compared with the Huang-Qin group: at least 30%
O=c1cc(-c2ccccc2)oc2cc(O)cc(O)c12 [Compound 18, chrysin] | – | – | – | – | – | – | – | – | – | – | – | – | 0.0041 ± 0.00044 µg/mL | 0.58 ± 0.23 h | 4.87 ± 1.43 h | 0.0413 ± 0.00134 µg·h/mL | –
COc1ccc2c(c1O)-c1c(O)c(OC)cc3c1[C@H](C2)[N+](C)(C)CC3 [Compound 19, magnoflorine] | – | 0.0473 ± 0.00931 µg·h/mL | 0.198 ± 0.0749 µg·h/mL | 0.0197 ± 0.00567 µg/mL | 8.35 ± 1.26 h | 4.13 ± 1.21 h | 0.00521 ± 0.0012 µg/mL | 4.54 ± 1.43 h | 0.28 ± 0.13 h | – | – | – | – | – | – | – | AUC(0-t) [16]: 0.556 ± 0.224 µg·h/mL; AUC(0-t) (male, Sprague-Dawley, rat, plasma, po, 18.9 g/kg, GQD group: rats, oral GQD 18.9 g/kg (1.5-fold of clinical dosage), plasma, read-out: AUClast): > 0.1 µg·h/mL; Cmax [17]: 0.0764 ± 0.0234 µg/mL; half-life [18]: 10.2 ± 4.34 h; Tmax [19]: 4.21 ± 3.47 h
c1c2c(cc3c1OCO3)-c1cc3ccc4c(c3c[n+]1CC2)OCO4 [Compound 21, coptisine] | – | – | – | – | – | – | – | – | – | – | – | – | 0.00533 ± 0.00135 µg/mL | 0.68 ± 0.65 h | 3.83 ± 1.34 h | 0.0732 ± 0.0212 µg·h/mL | increase of AUClast in GQD group compared with the Huang-Lian group (male, Sprague-Dawley, rat, in vivo, po): 49.1%; Cmax [20]: 0.00839 ± 0.0013 µg/mL; Tmax [20]: 0.69 ± 0.76 h; half-life [20]: 3.87 ± 0.27 h; AUC(0-t) (male, Sprague-Dawley, rat, in vivo, po, 16.5 g/kg, AUClast): 0.167 ± 0.0244 µg·h/mL; AUClast [21]: 0.1092 ± 0.07323 µg·h/mL; Cmax [21]: 0.00656 ± 0.00403 µg/mL; Tmax [21]: 0.74 ± 0.32 h; half-life [21]: 5.2 ± 1.37 h; AUC(0-t) (male, Sprague-Dawley, rat, in vivo, po, 18.9 g/kg, AUClast): > 0.1 µg·h/mL
COc1cc2c(cc1OC)-c1cc3ccc4c(c3c[n+]1CC2)OCO4 [Compound 22, epiberberine] | – | 0.0264 ± 0.011 µg·h/mL | 0.0294 ± 0.0213 µg·h/mL | 0.00721 ± 0.00362 µg/mL | 4.84 ± 0.13 h | 0.58 ± 0.12 h | 0.00935 ± 0.00171 µg/mL | 4.97 ± 0.85 h | 0.54 ± 0.17 h | – | – | – | – | – | – | – | AUC(0-t) [16]: 0.0167 ± 0.00945 µg·h/mL; Cmax [17]: 0.00353 ± 0.00034 µg/mL; half-life [18]: 4.34 ± 0.18 h; Tmax [19]: 0.58 ± 0.23 h

Source: paper PMC6018403 (Frontiers in Pharmacology, 2018)
